Data reported in publication PMC7590151, “Chiral Cyclobutane-Containing Cell-Penetrating Peptides as Selective Vectors for Anti-Leishmania Drug Delivery Systems” (International Journal of Molecular Sciences, 2020).

Test system: Leishmania donovani promastigotes
Assay: Viability of Leishmania donovani promastigotes (MTT reduction)
Format: cell-based
Details: L. donovani promastigotes 20 × 10^6 cells/mL, 4 h, 26 °C, full range of concentrations assayed (comparison 15 vs 16 at 5, 10 and 25 μM)
Procedure: The cellular viability in the presence of the peptides was assessed by the MTT reduction at both stages of the parasite after 4 h incubation (Figure 5).
The experiments were carried out with Leishmania donovani promastigotes (MHOM/SI/00/1S-2D strain) and Leishmania pifanoi amastigotes (MHOM/VE/60/Ltrod strain), respectively. Promastigotes were grown at 26 °C in RPMI medium supplemented with 10% of FCS, 2 mM L-glutamine, 20 U/mL unicillin 20 plus 48 µg/mL gentamicin.
The viability assays were carried out using the reduction of MTT as described. The parasites were aliquoted into 96-microwell plates at a final concentration of 20 × 10^6 cells/mL in HBSS supplemented with 10 mM D-glucose. The peptides were incubated for 4 h at the corresponding peptide concentration at 26 °C or 32 °C for promastigotes and axenic amastigotes, respectively. […] The resulting formazan was solubilized with […] (1% final concentration) and read at 595 nm in a Bio-Rad 640 microplate reader.
(a) L. pifanoi axenic amastigotes. […] Axenic Leishmania parasites (20 × 10^6 cells/mL) were incubated with the peptides, and MTT reduction measured immediately after 4 h incubation. […]
Figure 8 Viability of Leishmania donovani promastigotes treated with Dox-conjugates 15 and 16 along with Dox and Dox-TAT. Parasites were incubated with the respective reagents (20 × 10^6 cells/mL, 4 h, 26 °C), and MTT reduction measured afterwards. […]

COc1cccc2c1C(=O)c1c(O)c3c(c(O)c1C2=O)C[C@@](O)(C(=O)CO)C[C@@H]3O[C@H]1C[C@H](N)[C@H](O)[C@H](C)O1 [doxorubicin]
Toxicity towards promastigotes (in words): did not show any toxicity
